According to PubChem BioAssay (NCI):
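Results reflect a 48-hour exposure of cells in 96-well plates to compound at five concentrations. TGI is the concentration that stops growth completely.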

Columns and labels:
Test in all cases: inhibition of tumour cell growth, NCI panel, 48 h
CCRF-CEM leukemia = test system: CCRF-CEM leukemia
COLO 205 colon = test system: COLO 205 colon
K-562 leukemia = test system: K-562 leukemia
NCI-H23 lung = test system: NCI-H23 lung
SR leukemia = test system: SR leukemia
TK-10 renal = test system: TK-10 renal
UACC-257 melanoma = test system: UACC-257 melanoma
RPMI-8226 leukemia = test system: RPMI-8226 leukemia

Row | Compound | TGI (CCRF-CEM leukemia) [µM] | TGI (COLO 205 colon) [µM] | TGI (K-562 leukemia) [µM] | TGI (NCI-H23 lung) [µM] | TGI (SR leukemia) [µM] | TGI (TK-10 renal) [µM] | TGI (UACC-257 melanoma) [µM] | TGI (RPMI-8226 leukemia) [µM]
1 | CCOc1ccc(NC(=O)CCc2nnc(SC)o2)cc1 | > 100 | > 100 | > 100 | > 100 | > 100 | > 100 | > 100 | –
2 | Cc1cc2c(c(C(N)=O)c1C)-c1cc(Cl)cc(Cl)c1C2=O | > 100 | > 100 | > 100 | > 100 | – | > 100 | > 100 | > 100
3 | c1cc(-c2cn3c(n2)SCC3)ccn1 | > 100 | > 100 | > 31.6 | > 100 | > 100 | > 100 | > 100 | > 100
4 | O=C1c2ccccc2N2OC3(N4CCCC4)CCCCC3C12c1ccccc1 (stereo unspecified) | 47.5 | 31 | 59.8 | 86 | > 100 | – | 45.6 | > 100
5 | N#CC1(C#N)C(c2ccccc2)C=CC12OCCCO2 (stereo unspecified) | 88.7 | 93.6 | > 100 | 91.4 | > 100 | > 100 | > 100 | 91.7
6 | O=C(/C=C/c1ccc(Cl)c(Cl)c1)c1cccc2ccccc12 | 7.18 | 26.2 | 11.2 | 22.5 | – | 30.5 | 29.5 | 8.53
7 | Cc1ccccc1-n1c(N)c(-c2nc3ccccc3[nH]2)sc1=S | > 100 | 49 | > 100 | 45.4 | – | 85.8 | 36.6 | 62.2
8 | O=C(Cc1nc2ccccc2o1)C(=O)Nc1cccc(C(F)(F)F)c1 | > 100 | > 100 | > 100 | > 100 | – | > 100 | > 100 | > 100
9 | CC(=O)/C(=C\c1ccccc1O)C(=O)Nc1ccccc1C | 84.9 | – | > 100 | 37.2 | 48.1 | – | > 100 | 71.4
10 | CC1=NN(c2ccccc2)C(=O)/C1=C\c1ccc([N+](=O)[O-])cc1 | 49.5 | 33 | 81.4 | 91 | – | > 100 | > 100 | 57.2
11 | COc1ccc(-c2cc(=O)c3c(O)cccc3o2)c(OC)c1OC | > 100 | > 100 | > 100 | > 100 | – | > 100 | > 100 | > 100
12 | ClC1=C(Cl)C(Cl)(Cl)c2c3c(c4c(c21)C(Cl)(Cl)C(Cl)=C4Cl)C(Cl)(Cl)C(Cl)=C3Cl | > 100 | > 100 | > 100 | > 100 | > 100 | – | > 100 | > 100
13 | CC(C)(C)c1cc2nc(c1)C(C(F)(F)F)(C(F)(F)F)OB(Br)OC2(C(F)(F)F)C(F)(F)F | 0.677 | 0.364 | 10 | 17.2 | – | 5.5 | 0.188 | 3.76
14 | N[C@H](COCc1ccccc1)c1ccccc1 | 56.6 | 29.2 | 87.2 | 57.5 | 56 | > 100 | > 81.1 | 45.2
15 | c1ccc2c(c1)CCc1c-2n[nH]c1-c1[nH]nc2c1CCc1ccccc1-2 | > 100 | > 100 | > 100 | > 100 | > 100 | > 100 | > 100 | –
16 | CC1=C(C(=O)Nc2ccc(Cl)c(Cl)c2)C(c2ccc([N+](=O)[O-])cc2)C(C(=O)Nc2ccc(Cl)c(Cl)c2)=C(C)N1 | – | 3.13 | – | 5.98 | – | 55 | 7.84 | 8.63
17 | O=Cc1ccc2c(c1I)OCO2 | > 100 | > 100 | > 100 | > 100 | > 100 | > 100 | > 100 | > 100
18 | Cc1cccc(NC(=O)/C(=N\N)C(c2cnc3ccc([N+](=O)[O-])cc3n2)[N+](=O)[O-])c1C (stereo unspecified) | > 100 | > 100 | – | > 100 | > 100 | > 100 | > 100 | –
19 | CCOC(=O)C1Nc2ccccc2[C@H]2OCC[C@@H]12 (stereo partly specified) | > 100 | > 100 | > 100 | > 100 | – | > 100 | > 100 | –
20 | CCCC(S(=O)(=O)c1ccccc1)S(=O)(=O)c1ccccc1 | > 100 | – | > 100 | > 100 | – | > 100 | > 100 | > 100
21 | N#CNc1nc(N)c(-c2ccc(Cl)cc2)c(C(=O)Nc2nccs2)n1 | – | – | > 100 | > 100 | – | > 100 | > 100 | > 100
22 | Cc1cc(=O)c2c(O)cc3c(c2o1)CC=C(COC1OC(COC2OC(CO)C(O)C(O)C2O)C(O)C(O)C1O)CO3 (stereo unspecified) | > 100 | > 100 | > 100 | > 100 | > 100 | > 100 | > 100 | –
23 | O=C(NCCNCCO)c1cccc2ccc(-c3ccccc3)nc12 | 27.1 | 13.6 | > 100 | 15.3 | – | 6.72 | 14.2 | –
